The text below walks through data of ChEMBL document CHEMBL5137133, “Effects of the Anthocyanin Hirsutidin on Gastric Ulcers: Improved Healing through Antioxidant Mechanisms” (J Nat Prod, 2022).

In data set [1] the test system is Rattus norvegicus. As to the kind of experiment: Anti-ulcer activity in Wistar rat model of ethanol-induced gastric ulcer assessed as attenuation of TNFalpha level at 10 to 20 mg/kg, po administered once daily for 7 days followed by ethanol injection after 1 hr post last dose and measured after 4 hrs by ELISA. It is filed as functional. The conditions noted are these: dose 10-20 mg/kg, time 173 hrs.

Data set [2] in a line: Acute toxicity in po dosed mouse assessed as morbidity. In kind it is organism-based. The conditions noted are these: in vivo.
Data set [3] in a line: Acute toxicity in po dosed mouse assessed as mortality. In kind it is organism-based. The conditions noted are these: in vivo.
For data set [4], the system named is Rattus norvegicus. As to the kind of experiment: Anti-ulcer activity in Wistar rat model of ethanol-induced gastric ulcer assessed as increase in gastric pH at 10 mg/kg, po administered once daily for 7 days followed by ethanol injection after 1 hr post last dose and measured after 4 hrs. The conditions noted are these: time 173 hrs. It is filed as functional.

Data set [5] relates to Rattus norvegicus. As to the kind of experiment: Anti-ulcer activity in Wistar rat model of ethanol-induced gastric ulcer assessed as increase in gastric pH at 20 mg/kg, po administered once daily for 7 days followed by ethanol injection after 1 hr post last dose. The conditions noted are these: time 173 hrs. In kind it is functional.
In data set [6] the test system is Rattus norvegicus. As to the kind of experiment: Anti-ulcer activity in Wistar rat model of ethanol-induced gastric ulcer assessed as reduction in total acidity levels at 10 to 20 mg/kg, po administered once daily for 7 days followed by ethanol injection after 1 hr post last dose and measured after 4 hrs. It is filed as functional. Also on record: scale not given: the % may be the effect or the level left. The conditions noted are these: dose 10-20 mg/kg, time 173 hrs.

For data set [7], the system named is Rattus norvegicus. As to the kind of experiment: Anti-ulcer activity in Wistar rat model of ethanol-induced gastric ulcer assessed as reduction in ulcer score index at 10 to 20 mg/kg, po administered once daily for 7 days followed by ethanol injection after 1 hr post last dose and measured after 4 hrs. In kind it is functional, organism-based. The conditions noted are these: dose 10-20 mg/kg, time 173.0 hrs.

The subject of data set [8] is Rattus norvegicus. Nature of the data set: Anti-ulcer activity in Wistar rat model of ethanol-induced gastric ulcer assessed as restoration of endogenous GSH levels at 10 to 20 mg/kg, po administered once daily for 7 days followed by ethanol injection after 1 hr post last dose and measured after 4 hrs by Ellman's method. It is filed as functional, organism-based. The conditions noted are these: dose 10-20 mg/kg, time 173.0 hrs. Background: In Ellman's method for cholinesterases, released thiocholine reacts with DTNB.

Data set [9] relates to Rattus norvegicus. Nature of the data set: Anti-ulcer activity in Wistar rat model of ethanol-induced gastric ulcer assessed as restoration of endogenous SOD levels at 10 to 20 mg/kg, po administered once daily for 7 days followed by ethanol injection after 1 hr post last dose and measured after 4 hrs. The conditions noted are these: dose 10-20 mg/kg, time 173.0 hrs. It is filed as functional, organism-based.

The subject of data set [10] is Rattus norvegicus. Nature of the data set: Anti-ulcer activity in Wistar rat model of ethanol-induced gastric ulcer assessed as restoration of endogenous CAT levels at 10 to 20 mg/kg, po administered once daily for 7 days followed by ethanol injection after 1 hr post last dose and measured after 4 hrs by H2O2 decomposition assay. It is filed as functional, organism-based. The conditions noted are these: dose 10-20 mg/kg, time 173.0 hrs.

The subject of data set [11] is Rattus norvegicus. Nature of the data set: Anti-ulcer activity in Wistar rat model of ethanol-induced gastric ulcer assessed as reduction in MDA levels at 10 to 20 mg/kg, po administered once daily for 7 days followed by ethanol injection after 1 hr post last dose and measured after 4 hrs by Wills method. The conditions noted are these: dose 10-20 mg/kg, time 173 hrs. In kind it is functional. Also on record: scale not given: the % may be the effect or the level left.

For data set [12], the system named is Rattus norvegicus. Nature of the data set: Anti-ulcer activity in Wistar rat model of ethanol-induced gastric ulcer assessed as reduction in MPO levels at 10 to 20 mg/kg, po administered once daily for 7 days followed by ethanol injection after 1 hr post last dose and measured after 4 hrs. In kind it is functional, organism-based. The conditions noted are these: dose 10-20 mg/kg, time 173.0 hrs.

Data set [13] deals with Rattus norvegicus. Nature of the data set: Anti-ulcer activity in Wistar rat model of ethanol-induced gastric ulcer assessed as increase in PGE2 levels at 10 to 20 mg/kg, po administered once daily for 7 days followed by ethanol injection after 1 hr post last dose and measured after 4 hrs by ELISA. The conditions noted are these: dose 10-20 mg/kg, time 173.0 hrs. It is filed as functional, organism-based.

Data set [14] concerns Rattus norvegicus. As to the kind of experiment: Anti-ulcer activity in Wistar rat model of ethanol-induced gastric ulcer assessed as protection of NO depletion at 10 to 20 mg/kg, po administered once daily for 7 days followed by ethanol injection after 1 hr post last dose and measured after 4 hrs by ELISA. It is filed as functional. The conditions noted are these: dose 10-20 mg/kg, time 173 hrs. Background: ELISA stands for enzyme-linked immunosorbent assay.

The test system of data set [15] is Rattus norvegicus. Nature of the data set: Anti-ulcer activity in Wistar rat model of ethanol-induced gastric ulcer assessed as attenuation of AST level at 10 to 20 mg/kg, po administered once daily for 7 days followed by ethanol injection after 1 hr post last dose and measured after 4 hrs by ELISA. In kind it is functional. The conditions noted are these: dose 10-20 mg/kg, time 173 hrs.

For data set [16], the system named is Rattus norvegicus. As to the kind of experiment: Anti-ulcer activity in Wistar rat model of ethanol-induced gastric ulcer assessed as attenuation of ALT level at 10 to 20 mg/kg, po administered once daily for 7 days followed by ethanol injection after 1 hr post last dose and measured after 4 hrs by ELISA. It is filed as functional. The conditions noted are these: dose 10-20 mg/kg, time 173 hrs.

Data set [17] deals with Rattus norvegicus. Nature of the data set: Anti-ulcer activity in Wistar rat model of ethanol-induced gastric ulcer assessed as attenuation of ALP level at 10 to 20 mg/kg, po administered once daily for 7 days followed by ethanol injection after 1 hr post last dose and measured after 4 hrs by ELISA. In kind it is functional. The conditions noted are these: dose 10-20 mg/kg, time 173 hrs.

Data set [18] concerns Rattus norvegicus. Nature of the data set: Anti-ulcer activity in Wistar rat model of ethanol-induced gastric ulcer assessed as reduction in serum IL-1beta level at 10 to 20 mg/kg, po administered once daily for 7 days followed by ethanol injection after 1 hr post last dose and measured after 4 hrs by ELISA. In kind it is functional, organism-based. The conditions noted are these: dose 10-20 mg/kg, time 173.0 hrs.

The subject of data set [19] is Rattus norvegicus. Nature of the data set: Anti-ulcer activity in Wistar rat model of ethanol-induced gastric ulcer assessed as reduction in serum IL-6 level at 10 to 20 mg/kg, po administered once daily for 7 days followed by ethanol injection after 1 hr post last dose and measured after 4 hrs by ELISA. In kind it is functional, organism-based. The conditions noted are these: dose 10-20 mg/kg, time 173.0 hrs.

The test system of data set [20] is Rattus norvegicus. As to the kind of experiment: Anti-ulcer activity in Wistar rat model of ethanol-induced gastric ulcer assessed as protection against gastric tissue damages at 10 to 20 mg/kg, po administered once daily for 7 days followed by ethanol injection after 1 hr post last dose and measured after 4 hrs by ELISA. In kind it is functional, organism-based. The conditions noted are these: dose 10-20 mg/kg, time 173.0 hrs.

Calls of active or inactive are those of the source. The calls are words filed in the database; no cut-off is given here.

On to `COc1cc(O)c2cc(O)c(-c3cc(OC)c(O)c(OC)c3)[o+]c2c1`, for which the Activity in the data set on Rattus norvegicus [1] is on record as 27.59%; in data set [2], “Non-Toxic”; in data set [3], “Non-Toxic”; in the data set with Rattus norvegicus [6], 37.76%; with Rattus norvegicus [11] it was 49.25%; in the data set with Rattus norvegicus [14], 85.1%. The Activity with Rattus norvegicus [15] worked out at 35.3%; in the data set on Rattus norvegicus [16], 38.85%; in the data set on Rattus norvegicus [17], 47.68%. The values for the pH with Rattus norvegicus [4] and in the data set on Rattus norvegicus [5] were 7.17 and 6.36, respectively. Moreover, the result in the data set on Rattus norvegicus [7], in the data set on Rattus norvegicus [8], in the data set with Rattus norvegicus [9], with Rattus norvegicus [10], in the data set on Rattus norvegicus [12] and in the data set with Rattus norvegicus [13] was Active. In addition, the outcome with Rattus norvegicus [18], with Rattus norvegicus [19] and in the data set on Rattus norvegicus [20] was Active.
